{
  "source": "patent US11840686B2",
  "about": "“Modulation of prekallikrein (PKK) expression” (Ionis Pharmaceuticals, Inc., priority 2013, dated 2023)",
  "system": "basal vascular permeability",
  "test": "Dose-dependent effect on basal vascular permeability, Evans Blue OD600 (Example 14)",
  "assay_type": "in vivo, mouse",
  "conditions": "basal; HOE-140 30 μg ip",
  "method": "The effect of varying doses on ISIS 482584 on basal vascular permeability was evaluated.\nGroup 1 consisted of 8 mice and was treated with PBS administered subcutaneously twice a week for 3 weeks. No other treatment was administered to Group 1 which served as a control group to measure the basal levels of vascular permeability.\nGroup 2 consisted of 4 mice and was treated with PBS administered subcutaneously twice a week for 3 weeks. At the end of the treatment period, the mice were intraperitoneally administered 30 μg of HOE-140. Group 2 served as a positive control for inhibition of basal vascular permeability.\nGroups 3, 4, 5, 6, 7, and 8 consisted of 8 mice each and were treated with 2.5 mg/kg, 5 mg/kg, 10 mg/kg, 20 mg/kg, 40 mg/kg, or 80 mg/kg (corresponding to 5 mg/kg, 10 mg/kg, 20 mg/kg, 40 mg/kg, 80 mg/kg, or 160 mg/kg per week), respectively of ISIS 482584 administered subcutaneously twice a week for 3 weeks. […] served as the experimental treatment groups for examining the effect of varying doses of ISIS 482584 on basal vascular permeability.\nAll the groups were then injected with 30 mg/kg of Evans Blue solution in the tail vein. The mice were sacrificed 30 min after the Evans Blue solution administration and colons, feet, and ears were harvested and examined for permeability defects. Blood samples were taken through cardiac puncture.\nThe harvested tissues from the feet, colon, and ears were placed in formamide solution overnight to leach out the Evans Blue dye. The formamide solution containing feet and ear tissue was heated to 55° C. and left overnight. Higher OD values are associated with higher levels of permeability.",
  "data": [
    {"smiles": "NC(N)=NCCC[C@@H](N)C(=O)N[C@@H](CCCN=C(N)N)C(=O)N1CCC[C@H]1C(=O)N1C[C@H](O)C[C@H]1C(=O)NCC(=O)N[C@@H](Cc1cccs1)C(=O)N[C@@H](CO)C(=O)N1Cc2ccccc2C[C@@H]1C(=O)N1[C@H](C(=O)N[C@@H](CCCN=C(N)N)C(=O)O)C[C@@H]2CCCC[C@@H]21", "note": "[HOE-140, Icatibant, reference compound]", "values": [
      {"measurement": "OD600 nm of Evans Blue dye, Colon", "result": 0.24},
      {"measurement": "OD600 nm of Evans Blue dye, Ears", "result": 0.047},
      {"measurement": "OD600 nm of Evans Blue dye, Feet", "result": 0.09}
    ]}
  ]
}
